# Reference: patent US10988459B2 (priority 2015, dated 2021)
# Molecular target: human RIP1 kinase domain (2-375) (Homo sapiens (Human), UniProt Q13546)
# Assay: biochemical
# Format: biochemical
# Details: Table 1; apparent Ki (Morrison tight-binding fit); 50 nM RIP1 kinase domain, 50 uM ATP, 2 hours incubation; read-out: RIP1 Ki
# Outline: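 50 nM purified kinase domain from baculovirus-infected insect cells, incubated 2 h with compound in 50 mM Hepes pH 7.5, 30 mM MgCl2, 1 mM DTT, 50 uM ATP, 0.002% Brij-35, 0.5% DMSO. ADP formation read by Transcreener FP at 633 nm excitation. Ki^app fitted with the Morrison tight-binding equation.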
# Chain of human RIP1 kinase domain (2-375) (Q13546 2-375): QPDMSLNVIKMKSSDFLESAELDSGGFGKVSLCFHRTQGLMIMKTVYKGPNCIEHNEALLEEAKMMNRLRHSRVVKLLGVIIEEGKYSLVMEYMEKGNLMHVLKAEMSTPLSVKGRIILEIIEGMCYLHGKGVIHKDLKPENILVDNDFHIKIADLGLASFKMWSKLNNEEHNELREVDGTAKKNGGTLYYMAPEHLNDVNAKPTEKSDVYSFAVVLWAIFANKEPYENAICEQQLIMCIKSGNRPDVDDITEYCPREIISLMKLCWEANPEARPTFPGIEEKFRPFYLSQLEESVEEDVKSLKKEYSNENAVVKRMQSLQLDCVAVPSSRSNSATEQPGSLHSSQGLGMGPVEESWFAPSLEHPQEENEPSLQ
row,SMILES,Ki
1,"CN1C(=O)[C@@H](NC(=O)c2noc3c2CC(C(C)(C)C)CC3)COc2ccccc21 (stereo partly drawn) [Example 64, 5-(tert-butyl)-N-((S)-5-methyl-4-oxo-2,3,4,5-tetrahydrobenzo[b][1,4]oxazepin-3-yl)-4,5,6,7-tetrahydrobenzo[d]isoxazole-3-carboxamide]",73.5 nM

# Same assay, conditions: Table 5; apparent Ki (Morrison tight-binding fit); 50 nM RIP1 kinase domain, 50 uM ATP, 2 hours incubation; read-out: Ki
row,SMILES,Ki
1,CN1C(=O)[C@@H](NC(=O)c2ncn(Cc3ccccc3)n2)CCn2nc(CCN3CCC3)cc21 [Example 756],623 nM
2,"CN1C(=O)[C@@H](NC(=O)c2ncn(Cc3ccccc3)n2)CCn2nc(CCO)cc21 [Example 766, 1-benzyl-N-[(6S)-2-(2-hydroxyethyl)-4-methyl-5-oxo-7,8-dihydro-6H-pyrazolo[1,5-a][1,3]diazepin-6-yl]-1,2,4-triazole-3-carboxamide]",84 nM
3,"COCCOCCc1cc2n(n1)CC[C@H](NC(=O)c1ncn(Cc3ccccc3F)n1)C(=O)N2C [Example 760, 1-[(2-fluorophenyl)methyl]-N-[(6S)-2-[2(2-methoxyethoxy)ethyl]-4-methyl-5-oxo-7,8-dihydro-6H-pyrazolo[1,5-a][1,3]diazepin-6-yl]-1,2,4-triazole-3-carboxamide]",77 nM
4,"COCCNCc1cc2n(n1)CC[C@H](NC(=O)c1ncn(Cc3ccccc3)n1)C(=O)N2C (single isomer, unassigned) [Example 728]",225 nM
5,"CN1C(=O)[C@@H](NC(=O)c2cc3c(-c4ccccc4)cccc3cn2)CCn2nccc21 (racemic) [Example 703, 5-phenyl-N-[rac-(6S)-4-methyl-5-oxo-7,8-dihydro-6H-pyrazolo[1,5-a][1,3]diazepin-6-yl]isoquinoline-3-carboxamide]",24 nM
6,CCOCCc1cc2n(n1)CC[C@H](NC(=O)c1ncn(Cc3ccccc3)n1)C(=O)N2C [Example 758],86 nM
7,CN1C(=O)[C@@H](NC(=O)c2ncn(Cc3ccccc3)n2)CCn2nc(C3CN(C(=O)OC(C)(C)C)C3)cc21 [Example 759],24 nM
8,"CN1C(=O)[C@@H](NC(=O)c2nc3n(n2)[C@@H](c2ccccc2)CCC3)COc2ccccc21 (single isomer, unassigned) [Example 790]",149 nM

# Same assay, conditions: human RIP1 kinase domain (2-375), 50 uM ATP, 2 hours incubation, Transcreener ADP assay; read-out: RIP1 Ki
row,SMILES,Ki
1,"CN1C(=O)C(NC(=O)c2nnc(Cc3ccccc3)[nH]2)CCn2nc3c(c21)CCCC3 (centres unmarked) [Example 133, 5-benzyl-N-(1-methyl-2-oxo-2,3,4,5,8,9,10,11-octahydro-1H-[1,3]diazepino[1,2-b]indazol-3-yl)-4H-1,2,4-triazole-3-carboxamide]",127 nM
2,"CN1C(=O)C(NC(=O)c2nnc(Cc3ccccc3)[nH]2)CCn2ccnc21 (centres unmarked) [Example 175, 5-benzyl-N-(9-methyl-8-oxo-6,7,8,9-tetrahydro-5H-imidazo[1,2-a][1,3]diazepin-7-yl)-4H-1,2,4-triazole-3-carboxamide]",212 nM
3,"CCOc1ccc2[nH]nc(C(=O)N[C@H]3COc4ccccc4N(C)C3=O)c2n1 [Example 138, 5-ethoxy-N-[(3S)-5-methyl-4-oxo-2,3-dihydro-1,5-benzoxazepin-3-yl]-1H-pyrazolo[4,3-b]pyridine-3-carboxamide]",3700 nM
4,"CN1C(=O)[C@@H](NC(=O)c2n[nH]c3c2CC2(CC3)CC2(F)F)COc2ccccc21 (stereo partly drawn) [Example 189, 2,2-difluoro-N—((S)-5-methyl-4-oxo-2,3,4,5-tetrahydrobenzo[b][1,4]oxazepin-3-yl)-1′,4′,6′,7′-tetrahydrospiro[cyclopropane-1,5′-indazole]-3′-carboxamide]",260 nM
5,"Cc1cc2n(n1)CC[C@H](NC(=O)c1ncn([C@H](C)c3ccccc3)n1)C(=O)N2C [Example 158, N-((S)-2,4-dimethyl-5-oxo-5,6,7,8-tetrahydro-4H-pyrazolo[1,5-a][1,3]diazepin-6-yl)-1-((R)-1-phenylethyl)-1H-1,2,4-triazole-3-carboxamide]",986 nM

# Same assay, conditions: human RIP1 kinase domain (2-375), Transcreener ADP assay, 50 uM ATP, 2 hours incubation; read-out: RIP1 Ki
row,SMILES,Ki
1,"CC[C@@]1(C)OCc2cnc(C(=O)N[C@H]3CCn4nc(C)c(C)c4N(C)C3=O)cc21 [Example 276, (R)-1-ethyl-1-methyl-N—((S)-2,3,4-trimethyl-5-oxo-5,6,7,8-tetrahydro-4H-pyrazolo[1,5-a][1,3]diazepin-6-yl)-1,3-dihydrofuro[3,4-c]pyridine-6-carboxamide]",93.6 nM
2,"CC(C)c1ccc2[nH]nc(C(=O)N[C@H]3COc4ccccc4N(C)C3=O)c2c1 [Example 228, (S)-5-isopropyl-N-(5-methyl-4-oxo-2,3,4,5-tetrahydrobenzo[b][1,4]oxazepin-3-yl)-1H-indazole-3-carboxamide]",5 nM
3,"Cc1nn2c(c1C)N(C)C(=O)[C@@H](NC(=O)c1ncn(Cc3ccc(F)cc3)n1)CC2 [Example 281, (S)-1-(4-fluorobenzyl)-N-(2,3,4-trimethyl-5-oxo-5,6,7,8-tetrahydro-4H-pyrazolo[1,5-a][1, 3]diazepin-6-yl)-1H-1,2,4-triazole-3-carboxamide]",38.7 nM
4,"Cc1cc2n(n1)CCC(NC(=O)c1ncn(CC3CCC(F)(F)CC3)n1)C(=O)N2C (centres unmarked) [Example 246, 1-((4,4-difluorocyclohexyl)methyl)-N-(2,4-dimethyl-5-oxo-5,6,7,8-tetrahydro-4H-pyrazolo[1,5-a][1,3]diazepin-6-yl)-1H-1,2,4-triazole-3-carboxamide]",695 nM
5,"CN1C(=O)C(NC(=O)c2ncn(CC3CC(F)(F)C3)n2)CCn2nc(C3CC3)cc21 (centres unmarked) [Example 269, N-(2-cyclopropyl-4-methyl-5-oxo-5,6,7,8-tetrahydro-4H-pyrazolo[1,5-a][1,3]diazepin-6-yl)-1-((3,3-difluorocyclobutyl)methyl)-1H-1,2,4-triazole-3-carboxamide]",811 nM
6,"CN1C(=O)[C@@H](NC(=O)c2nnn3c2CC(C(F)(F)C(F)(F)F)CC3)COc2ccccc21 (stereo partly drawn) [Example 277, N—((S)-5-methyl-4-oxo-2,3,4,5-tetrahydrobenzo[b][1,4]oxazepin-3-yl)-5-(perfluoroethyl)-4,5,6,7-tetrahydro-[1,2,3]triazolo[1,5-a]pyridine-3-carboxamide]",23.9 nM
7,"CCC1(C)OCc2cnc(C(=O)N[C@H]3CCn4nc(C)cc4N(C)C3=O)nc21 (stereo partly drawn) [Example 326, N—((S)-2,4-dimethyl-5-oxo-5,6,7,8-tetrahydro-4H-pyrazolo[1,5-a][1,3]diazepin-6-yl)-7-ethyl-7-methyl-5,7-dihydrofuro[3,4-d]pyrimidine-2-carboxamide]",618 nM
8,"Cc1ncn2c1N(C)C(=O)C(NC(=O)c1cn(Cc3ccccc3)nn1)CC2 (centres unmarked) [Example 227, 1-benzyl-N-(1,9-dimethyl-2-oxo-2,3,4,5-tetrahydro-1H-imidazo[1,5-a][1,3]diazepin-3-yl)-1H-1,2,3-triazole-4-carboxamide]",419 nM

# Same assay, conditions: read-out: RIP1 Ki
row,SMILES,Ki
1,"CN1C(=O)[C@@H](NC(=O)c2n[nH]c3c2CC(C)(C)CC3)COc2ccccc21 [Example 18, 5,5-dimethyl-N-[(3S)-5-methyl-4-oxo-2,3-dihydro-1,5-benzoxazepin-3-yl]-1,4,6,7-tetrahydroindazole-3-carboxamide]",415 nM

# Same assay, conditions: tight-binding apparent inhibition constant; human RIP1 kinase domain (2-375) 50 nM, 50 uM ATP, 2 hours; read-out: Ki
row,SMILES,Ki
1,"Cc1ncc2n1CC[C@@H](NC(=O)c1ncn(Cc3ccccc3F)n1)C(=O)N2C [Example 576, 1-[(2-fluorophenyl)methyl]-N-(3R)-1,7-dimethyl-2-oxo-4,5-dihydro-3H-imidazo[1,5-a][1, 3]diazepin-3-yl-1,2,4-triazole-3-carboxamide]",40 nM
2,"CC(C)[C@@H]1CCCc2nc(C(=O)N[C@H]3COc4cc(F)cc(F)c4NC3=O)nn21 (single isomer, unassigned) [Example 444]",4.67 nM
3,"CN1C(=O)[C@H](NC(=O)c2ncn(Cc3ccccc3F)n2)CCn2cncc21 [Example 599, 1-[(2-fluorophenyl)methyl]-N-(3R)-1-methyl-2-oxo-4,5-dihydro-3H-imidazo[1,5-a][1,3]diazepin-3-yl-1,2,4-triazole-3-carboxamide]",35 nM
4,"CCC[C@H]1CCCc2nc(C(=O)N[C@H]3CCc4cc(F)cc(F)c4NC3=O)nn21 (single isomer, unassigned) [Example 435]",25.2 nM
5,"CN1C(=O)[C@@H](NC(=O)c2nc3n(n2)[C@@H](c2ccccc2)CC3)CCn2nccc21 (single isomer, unassigned) [Example 624]",20 nM
6,"CN1C(=O)[C@@H](NC(=O)c2ncc3c(n2)C2(CCCC2)OC3)CCn2nccc21 [Example 565, N-[(6S)-4-methyl-5-oxo-7,8-dihydro-6H-pyrazolo[1,5-a][1,3]diazepin-6-yl]spiro[5H-furo [3,4-d]pyrimidine-7,1′-cyclopentane]-2-carboxamide]",70 nM
7,"CC[C@H]1CCCc2nc(C(=O)N[C@H]3COc4ccccc4N(C)C3=O)nn21 (racemic) [Example 403, (S)-5-ethyl-N—((S)-5-methyl-4-oxo-2,3,4,5-tetrahydrobenzo[b][1,4]oxazepin-3-yl)-5,6,7,8-tetrahydro-[1,2,4]triazolo[1,5-a]pyridine-2-carboxamide]",81.9 nM
8,"Cn1cc(C2CCCc3nc(C(=O)N[C@H]4CCc5cc(F)cc(F)c5NC4=O)nn32)cn1 (stereo partly drawn) [Example 433, N—((S)-7,9-difluoro-2-oxo-2,3,4,5-tetrahydro-1H-benzo[b]azepin-3-yl)-5-(1-methyl-1H-pyrazol-4-yl)-5,6,7,8-tetrahydro-[1,2,4]triazolo[1,5-a]pyridine-2-carboxamide]",143 nM
9,"Cc1cc2n(n1)CC[C@H](NC(=O)c1ncn(CC3(C)CCC3)n1)C(=O)N2C [Example 560, 1-[(1-methylcyclobutyl)methyl]-N-(6S)-2,4-dimethyl-5-oxo-7,8-dihydro-6H-pyrazolo[1,5-a][1,3]diazepin-6-yl-1,2,4-triazole-3-carboxamide]",140 nM
